According to ChEMBL document CHEMBL5113517, “Structure-Based Design, Optimization, and Evaluation of Potent Stabilized Peptide Inhibitors Disrupting MTDH and SND1 Interaction” (J Med Chem, 2022):
Numbered stars: 1 amine (or outer) side, 2 acyl side, 3 side chain; on linkers, the order of the positions; unused ones are H or OH. Bridge positions count the residues as written; N and C are the ends. Square brackets hold non-standard residues; d marks the D form. Peptide text beside a SMILES is read from it. I, II: the chains in the order shown. ξ: configuration not given here. X1 = N[C@@H](CC(=O)[*:1])C(=O)[*:2]; Dap = NC[C@H](N)C(=O)O; ξD = NC(CC(=O)O)C(=O)O

Test: Drug uptake in human MDA-MB-231 cells assessed as increase in cell penetration at 10 uM incubated for 12 hrs by flow cytometry method
Type: ADME, cell-based
Details: mda-mb-231, 12 h; call rule not given here

| Structure (SMILES) | Drug uptake |
| --- | --- |
| CC(C)[C@H](NC(=O)[C@H](Cc1c[nH]c2ccccc12)NC(=O)[C@H](CC(N)=O)NC(=O)CNC(=O)[C@H](Cc1c[nH]c2ccccc12)NC(=O)[C@@H]1CNC(=O)[C@@H](NC(=O)[C@H](C)NC(=O)[C@H](CC(N)=O)NC(=O)[C@H](Cc2c[nH]c3ccccc23)NC(=O)[C@@H](N)CC(=O)O)CC(=O)N[C@@H](C)C(=O)N[C@@H](CCC(=O)O)C(=O)N1)C(=O)N[C@@H](CC(=O)O)C(=O)N[C@@H](CCC(=O)O)C(N)=O (I: AE[Dap]WGNWVDE-NH2 / II: H-DWNAD; amide I:3-II:C, I:N-II:5) | Active |
| CC(C)[C@H](NC(=O)[C@H](Cc1c[nH]c2ccccc12)NC(=O)[C@H](CC(N)=O)NC(=O)CNC(=O)[C@H](Cc1c[nH]c2ccccc12)NC(=O)[C@H](CCC(=O)O)NC(=O)[C@H](CCC(=O)O)NC(=O)[C@H](C)NC(=O)[C@@H]1CCCN1C(=O)[C@@H]1CNC(=O)[C@@H](NC(=O)[C@@H](N)CC(=O)O)CC(=O)N[C@@H](Cc2c[nH]c3ccccc23)C(=O)N[C@@H](CC(N)=O)C(=O)N1)C(=O)N[C@@H](CC(=O)O)C(=O)N[C@@H](CCC(=O)O)C(N)=O | Active |
| CC(C)[C@H](NC(=O)[C@H](Cc1c[nH]c2ccccc12)NC(=O)[C@H](CC(N)=O)NC(=O)CNC(=O)[C@H](Cc1c[nH]c2ccccc12)NC(=O)[C@H](CCC(=O)O)NC(=O)[C@@H]1CNC(=O)CC(NC(=O)[C@H](CC(N)=O)NC(=O)[C@H](Cc2c[nH]c3ccccc23)NC(=O)[C@@H](N)CC(=O)O)C(=O)N2CCC[C@H]2C(=O)N[C@@H](C)C(=O)N1)C(=O)N[C@@H](CC(=O)O)C(=O)N[C@@H](CCC(=O)O)C(N)=O (stereo partly specified) (H-DWN[ξD]PA[Dap]EWGNWVDE-NH2; lactam 4-7) | Active |

Test: Binding affinity to MTDH /His-SND1 (unknown origin) expressed in Escherichia coli BL21(DE3) assessed as dissociation constant by fluorescence polarization assay
Set-up: species or system Homo sapiens
Details: not given

| Structure (SMILES) | Kd |
| --- | --- |
| C[C@H](NC(=O)[C@H](CO)NC(=O)[C@@H](N)CO)C(=O)N[C@@H](CC(=O)O)C(=O)N1CCC[C@H]1C(=O)N[C@@H](CC(N)=O)C(=O)N[C@@H](CO)C(=O)N[C@@H](CC(=O)O)C(=O)N[C@@H](Cc1c[nH]c2ccccc12)C(=O)N[C@@H](CC(N)=O)C(=O)N[C@@H](C)C(=O)N1CCC[C@H]1C(=O)N[C@@H](C)C(=O)N[C@@H](CCC(=O)O)C(=O)N[C@@H](CCC(=O)O)C(=O)N[C@@H](Cc1c[nH]c2ccccc12)C(=O)NCC(=O)N[C@@H](CC(N)=O)C(=O)O (H-SSADPNSDWNAPAEEWGN-OH) | 0.118 µM |
| CC(C)[C@H](NC(=O)[C@H](Cc1c[nH]c2ccccc12)NC(=O)[C@H](CC(N)=O)NC(=O)CNC(=O)[C@H](Cc1c[nH]c2ccccc12)NC(=O)[C@H](CCC(=O)O)NC(=O)[C@H](CCC(=O)O)NC(=O)[C@H](C)NC(=O)[C@@H]1CCCN1C(=O)[C@H](C)NC(=O)[C@H](CC(N)=O)NC(=O)[C@H](Cc1c[nH]c2ccccc12)NC(=O)[C@H](CC(=O)O)NC(=O)[C@H](CO)NC(=O)[C@H](CC(N)=O)NC(=O)[C@@H]1CCCN1C(=O)[C@H](CC(=O)O)NC(=O)[C@H](C)NC(=O)[C@H](CO)NC(=O)[C@@H](N)CO)C(=O)N[C@@H](CC(=O)O)C(=O)N[C@@H](CCC(=O)O)C(=O)O (H-SSADPNSDWNAPAEEWGNWVDE-OH) | 0.0624 µM |
| C[C@H](NC(=O)[C@H](CC(N)=O)NC(=O)[C@@H]1CNC(=O)[C@@H](N)CC(=O)N[C@@H](Cc2c[nH]c3ccccc23)C(=O)N[C@@H](CC(N)=O)C(=O)N1)C(=O)N[C@@H](CCC(=O)O)C(=O)N[C@@H](CCC(=O)O)C(=O)N[C@@H](Cc1c[nH]c2ccccc12)C(=O)NCC(=O)N[C@@H](CC(N)=O)C(N)=O (WN[Dap]NAEEWGN-NH2; linker N-3 via X1) | 0.697 µM |
| C[C@H](NC(=O)[C@@H]1CCCN1C(=O)[C@H](C)NC(=O)[C@H](CC(N)=O)NC(=O)[C@H](Cc1c[nH]c2ccccc12)NC(=O)[C@@H](N)CC(=O)O)C(=O)N[C@@H](CCC(=O)O)C(=O)N[C@@H](CCC(=O)O)C(=O)N[C@@H](Cc1c[nH]c2ccccc12)C(=O)NCC(=O)N[C@@H](CC(N)=O)C(=O)O (H-DWNAPAEEWGN-OH) | 0.211 µM |
| CC[C@H](C)[C@H](NC(=O)[C@H](CC(N)=O)NC(=O)[C@H](Cc1c[nH]c2ccccc12)NC(=O)[C@H](CC(=O)O)NC(=O)[C@@H]1CNC(=O)[C@@H](N)CC(=O)N[C@@H](C)C(=O)N[C@@H](C)C(=O)N1)C(=O)N[C@@H](Cc1ccc(O)cc1)C(=O)N[C@@H](C)C(=O)N[C@@H](Cc1ccc(O)cc1)C(=O)N[C@@H](CCC(=O)O)C(=O)N[C@@H](Cc1c[nH]c2ccccc12)C(=O)NCC(=O)N[C@@H](CC(N)=O)C(=O)N[C@@H](Cc1c[nH]cn1)C(N)=O (AA[Dap]DWNIYAYEWGNH-NH2; linker N-3 via X1) | 0.671 µM |
| C[C@H](NC(=O)[C@H](CC(N)=O)NC(=O)[C@@H]1CNC(=O)[C@@H](N)CC(=O)N[C@@H](Cc2c[nH]c3ccccc23)C(=O)N[C@@H](CC(N)=O)C(=O)N1)C(=O)N[C@@H](Cc1ccccc1)C(=O)N[C@@H](CCC(=O)O)C(=O)N[C@@H](Cc1c[nH]c2ccccc12)C(=O)NCC(=O)N[C@@H](CC(N)=O)C(N)=O (WN[Dap]NAFEWGN-NH2; linker N-3 via X1) | 1.73 µM |
| C[C@H](NC(=O)[C@H](CC(N)=O)NC(=O)[C@@H]1CNC(=O)[C@@H](N)CC(=O)N[C@@H](Cc2c[nH]c3ccccc23)C(=O)N[C@@H](CC(N)=O)C(=O)N1)C(=O)N[C@@H](Cc1ccc(O)cc1)C(=O)N[C@@H](CCC(=O)O)C(=O)N[C@@H](Cc1c[nH]c2ccccc12)C(=O)NCC(=O)N[C@@H](CC(N)=O)C(N)=O (WN[Dap]NAYEWGN-NH2; linker N-3 via X1) | 0.932 µM |
| C[C@H](NC(=O)[C@@H]1CCCN1C(=O)[C@@H]1CNC(=O)[C@@H](N)CC(=O)N[C@@H](Cc2c[nH]c3ccccc23)C(=O)N[C@@H](CC(N)=O)C(=O)N1)C(=O)N[C@@H](Cc1ccccc1)C(=O)N[C@@H](CCC(=O)O)C(=O)N[C@@H](Cc1c[nH]c2ccccc12)C(=O)NCC(=O)N[C@@H](CC(N)=O)C(N)=O (WN[Dap]PAFEWGN-NH2; linker N-3 via X1) | 0.992 µM |
| CC(C)[C@H](NC(=O)[C@H](Cc1c[nH]c2ccccc12)NC(=O)[C@H](CC(N)=O)NC(=O)CNC(=O)[C@H](Cc1c[nH]c2ccccc12)NC(=O)[C@@H]1CNC(=O)[C@@H](NC(=O)[C@H](C)NC(=O)[C@H](CC(N)=O)NC(=O)[C@H](Cc2c[nH]c3ccccc23)NC(=O)[C@@H](N)CC(=O)O)CC(=O)N[C@@H](C)C(=O)N[C@@H](CCC(=O)O)C(=O)N1)C(=O)N[C@@H](CC(=O)O)C(=O)N[C@@H](CCC(=O)O)C(N)=O (I: AE[Dap]WGNWVDE-NH2 / II: H-DWNAD; amide I:3-II:C, I:N-II:5) | 0.171 µM |
| CC(C)[C@H](NC(=O)[C@H](Cc1c[nH]c2ccccc12)NC(=O)[C@H](CC(N)=O)NC(=O)CNC(=O)[C@H](Cc1c[nH]c2ccccc12)NC(=O)[C@H](CCC(=O)O)NC(=O)[C@H](CCC(=O)O)NC(=O)[C@H](C)NC(=O)[C@@H]1CCCN1C(=O)[C@@H]1CNC(=O)[C@@H](NC(=O)[C@@H](N)CC(=O)O)CC(=O)N[C@@H](Cc2c[nH]c3ccccc23)C(=O)N[C@@H](CC(N)=O)C(=O)N1)C(=O)N[C@@H](CC(=O)O)C(=O)N[C@@H](CCC(=O)O)C(N)=O | 0.121 µM |
| CC[C@H](C)[C@H](NC(=O)[C@H](CC(N)=O)NC(=O)[C@H](Cc1c[nH]c2ccccc12)NC(=O)[C@H](CC(=O)O)NC(=O)[C@@H]1CNC(=O)[C@@H](N)CC(=O)N[C@@H](C)C(=O)N[C@@H](C)C(=O)N1)C(=O)N[C@@H](Cc1ccc(O)cc1)C(=O)N[C@@H](C)C(=O)N[C@@H](Cc1ccc(O)cc1)C(=O)N[C@@H](CCC(=O)O)C(=O)N[C@@H](Cc1c[nH]c2ccccc12)C(=O)NCC(=O)N[C@@H](CC(N)=O)C(=O)N[C@@H](CC(=O)O)C(N)=O (AA[Dap]DWNIYAYEWGND-NH2; linker N-3 via X1) | 0.443 µM |
| C[C@H](NC(=O)[C@H](Cc1ccc(O)cc1)NC(=O)[C@@H]1CNC(=O)[C@@H](N)CC(=O)N[C@@H](Cc2c[nH]c3ccccc23)C(=O)N[C@@H](CC(N)=O)C(=O)N1)C(=O)N[C@@H](Cc1ccc(O)cc1)C(=O)N[C@@H](CCC(=O)O)C(=O)N[C@@H](Cc1c[nH]c2ccccc12)C(=O)NCC(=O)N[C@@H](CC(N)=O)C(N)=O (WN[Dap]YAYEWGN-NH2; linker N-3 via X1) | 0.943 µM |
| C[C@H](NC(=O)[C@@H]1CCCN1C(=O)[C@@H]1CNC(=O)[C@@H](N)CC(=O)N[C@@H](Cc2c[nH]c3ccccc23)C(=O)N[C@@H](CC(N)=O)C(=O)N1)C(=O)N[C@@H](Cc1ccc(O)cc1)C(=O)N[C@@H](CCC(=O)O)C(=O)N[C@@H](Cc1c[nH]c2ccccc12)C(=O)NCC(=O)N[C@@H](CC(N)=O)C(N)=O (WN[Dap]PAYEWGN-NH2; linker N-3 via X1) | 0.585 µM |
| CC(C)[C@H](NC(=O)[C@H](Cc1c[nH]c2ccccc12)NC(=O)[C@H](CC(N)=O)NC(=O)CNC(=O)[C@H](Cc1c[nH]c2ccccc12)NC(=O)[C@H](CCC(=O)O)NC(=O)[C@H](CCC(=O)O)NC(=O)[C@H](C)NC(=O)[C@@H]1CCCN1C(=O)[C@H](C)NC(=O)[C@H](CC(N)=O)NC(=O)[C@H](Cc1c[nH]c2ccccc12)NC(=O)[C@H](CC(=O)O)NC(=O)[C@H](CO)NC(=O)[C@@H](N)CC(N)=O)C(=O)O (H-NSDWNAPAEEWGNWV-OH) | 0.152 µM |
| CC[C@H](C)[C@H](NC(=O)[C@H](CC(N)=O)NC(=O)[C@H](Cc1c[nH]c2ccccc12)NC(=O)[C@H](CC(=O)O)NC(=O)[C@@H]1CNC(=O)[C@@H](N)CC(=O)N[C@@H](C)C(=O)N[C@@H](C)C(=O)N1)C(=O)N[C@@H](Cc1ccc(O)cc1)C(=O)N[C@@H](C)C(=O)N[C@@H](Cc1ccc(O)cc1)C(=O)N[C@@H](CCC(=O)O)C(=O)N[C@@H](Cc1c[nH]c2ccccc12)C(=O)NCC(=O)N[C@@H](CC(N)=O)C(=O)N[C@@H](CCC(=O)O)C(N)=O (AA[Dap]DWNIYAYEWGNE-NH2; linker N-3 via X1) | 0.451 µM |
| CC(C)[C@H](NC(=O)[C@H](Cc1c[nH]c2ccccc12)NC(=O)[C@H](CC(N)=O)NC(=O)CNC(=O)[C@H](Cc1c[nH]c2ccccc12)NC(=O)[C@H](CCC(=O)O)NC(=O)[C@@H]1CNC(=O)CC(NC(=O)[C@H](CC(N)=O)NC(=O)[C@H](Cc2c[nH]c3ccccc23)NC(=O)[C@@H](N)CC(=O)O)C(=O)N2CCC[C@H]2C(=O)N[C@@H](C)C(=O)N1)C(=O)N[C@@H](CC(=O)O)C(=O)N[C@@H](CCC(=O)O)C(N)=O (stereo partly specified) (H-DWN[ξD]PA[Dap]EWGNWVDE-NH2; lactam 4-7) | 0.171 µM |
| C[C@@H]1NC(=O)C[C@H](N)C(=O)NC[C@@H](C(=O)N[C@@H](CC(=O)O)C(=O)N[C@@H](Cc2c[nH]c3ccccc23)C(=O)N[C@@H](CC(N)=O)C(=O)N[C@@H](C)C(=O)N2CCC[C@H]2C(=O)N[C@@H](C)C(=O)N[C@@H](CCC(=O)O)C(=O)N[C@@H](CCC(=O)O)C(=O)N[C@@H](Cc2c[nH]c3ccccc23)C(=O)NCC(=O)N[C@@H](CC(N)=O)C(N)=O)NC(=O)[C@H](C)NC1=O (AA[Dap]DWNAPAEEWGN-NH2; linker N-3 via X1) | 0.231 µM |
| C[C@H](NC(=O)[C@@H]1CCCN1C(=O)[C@@H]1CNC(=O)[C@@H](N)CC(=O)N[C@@H](Cc2c[nH]c3ccccc23)C(=O)N[C@@H](CC(N)=O)C(=O)N1)C(=O)N[C@@H](CCC(=O)O)C(=O)N[C@@H](CCC(=O)O)C(=O)N[C@@H](Cc1c[nH]c2ccccc12)C(=O)NCC(=O)N[C@@H](CC(N)=O)C(N)=O (WN[Dap]PAEEWGN-NH2; linker N-3 via X1) | 0.584 µM |
